Active and inactive are the calls of the source.
Tests used:
[1] = biological target: T1, RNA-binding protein pos-1 (Caenorhabditis elegans, UniProt G5EF15); assay: disruptors of C. elegans POS-1 RNA interaction – biochemical, fluorescence polarization, dose response (AID 1964);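 note: purified POS-1 fused to maltose binding protein made in E. coli; potency of compounds blocking POS-1 binding to fluorescent RNA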
T1 sequence (G5EF15 whole entry): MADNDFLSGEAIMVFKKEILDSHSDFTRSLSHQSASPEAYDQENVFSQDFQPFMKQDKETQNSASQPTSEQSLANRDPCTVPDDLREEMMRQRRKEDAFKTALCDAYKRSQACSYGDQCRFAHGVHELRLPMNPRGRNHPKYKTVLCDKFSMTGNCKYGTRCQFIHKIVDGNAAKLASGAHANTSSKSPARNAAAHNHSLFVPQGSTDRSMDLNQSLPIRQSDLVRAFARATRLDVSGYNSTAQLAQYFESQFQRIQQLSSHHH

[2] = biological target: T2, Bifunctional protein GlmU (Mycobacterium tuberculosis, UniProt P9WMN3); assay: Inhibitors of Mycobacterial Glucosamine-1-phosphate acetyl transferase (GlmU). Secondary screen.; set-up: species or system Mycobacterium tuberculosis H37Rv
T2 sequence (P9WMN3 whole entry): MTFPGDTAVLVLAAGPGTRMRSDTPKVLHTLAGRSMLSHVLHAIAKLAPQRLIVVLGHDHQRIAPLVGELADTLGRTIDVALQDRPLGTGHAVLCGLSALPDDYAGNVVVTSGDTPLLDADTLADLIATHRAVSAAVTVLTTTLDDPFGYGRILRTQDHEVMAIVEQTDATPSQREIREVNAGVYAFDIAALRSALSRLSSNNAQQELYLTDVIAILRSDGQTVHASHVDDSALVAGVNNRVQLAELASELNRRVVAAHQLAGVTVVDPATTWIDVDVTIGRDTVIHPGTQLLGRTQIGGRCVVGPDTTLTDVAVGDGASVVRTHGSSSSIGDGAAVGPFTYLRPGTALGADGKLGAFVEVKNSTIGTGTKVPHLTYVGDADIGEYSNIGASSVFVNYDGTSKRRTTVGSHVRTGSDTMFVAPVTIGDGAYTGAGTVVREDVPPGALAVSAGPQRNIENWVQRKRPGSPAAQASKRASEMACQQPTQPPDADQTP

[3] = biological target: DNA dC->dU-editing enzyme APOBEC-3A (Homo sapiens, UniProt P31941); assay: Dose Response confirmation of small molecule APOBEC3A DNA Deaminase Inhibitors via a fluorescence-based single-stranded DNA deaminase assay. [Related pubchem assays (depositor defined):AID493011, AID493024]; format: functional
[4] = biological target: DNA dC->dU-editing enzyme APOBEC-3G (Homo sapiens, UniProt Q9HC16); format: functional;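 note: Dose-response counterscreen measuring inhibition of APOBEC3G DNA deaminase activity, run while confirming APOBEC3A inhibitors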
[5] = biological target: T3, Zinc finger protein mex-5 (Caenorhabditis elegans, UniProt Q9XUB2); assay: potency of MEX-5 RNA-binding blockers – biochemical, C. elegans, fluorescence polarization, dose response (AID 1960)
T3 sequence (Q9XUB2 whole entry): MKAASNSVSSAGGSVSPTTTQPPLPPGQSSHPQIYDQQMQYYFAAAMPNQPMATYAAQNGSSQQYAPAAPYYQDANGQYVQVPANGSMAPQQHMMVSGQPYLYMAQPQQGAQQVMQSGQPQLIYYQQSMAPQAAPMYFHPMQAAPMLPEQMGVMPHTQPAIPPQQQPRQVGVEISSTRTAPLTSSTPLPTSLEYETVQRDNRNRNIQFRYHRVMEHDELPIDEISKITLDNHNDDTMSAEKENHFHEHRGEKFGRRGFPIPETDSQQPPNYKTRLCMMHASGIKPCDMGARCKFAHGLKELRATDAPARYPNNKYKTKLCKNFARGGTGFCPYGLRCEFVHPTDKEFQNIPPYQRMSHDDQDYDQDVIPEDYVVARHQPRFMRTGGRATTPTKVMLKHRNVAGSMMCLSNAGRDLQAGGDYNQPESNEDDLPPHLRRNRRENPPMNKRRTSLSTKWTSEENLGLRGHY

14-3-3 protein gamma = biological target: T4, 14-3-3 protein gamma (Homo sapiens, UniProt P61981); assay: modulators of 14-3-3 gamma client binding – dose response (AID 711); format: functional
T4 sequence (P61981 whole entry): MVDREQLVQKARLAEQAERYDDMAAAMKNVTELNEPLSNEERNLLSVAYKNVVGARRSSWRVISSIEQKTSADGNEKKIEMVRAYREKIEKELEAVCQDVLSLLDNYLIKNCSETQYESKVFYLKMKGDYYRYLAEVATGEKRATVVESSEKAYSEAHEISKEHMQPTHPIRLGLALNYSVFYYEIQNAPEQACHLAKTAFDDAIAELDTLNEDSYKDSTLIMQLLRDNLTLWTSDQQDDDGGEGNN

[6] = viability of uninfected HEp-2 cells – cell-based, HTS, cytotoxicity control for RSV inhibitor project, dose response (AID 2410); format: functional; conditions: human respiratory syncytial virus
[7] = biological target: T5, High affinity choline transporter 1 (Homo sapiens, UniProt Q9GZV3); assay: human choline transporter blockers, potency – cell-based, 5-point CRC, membrane potential dye, dose response (AID 504840); format: functional
T5 sequence (Q9GZV3 whole entry): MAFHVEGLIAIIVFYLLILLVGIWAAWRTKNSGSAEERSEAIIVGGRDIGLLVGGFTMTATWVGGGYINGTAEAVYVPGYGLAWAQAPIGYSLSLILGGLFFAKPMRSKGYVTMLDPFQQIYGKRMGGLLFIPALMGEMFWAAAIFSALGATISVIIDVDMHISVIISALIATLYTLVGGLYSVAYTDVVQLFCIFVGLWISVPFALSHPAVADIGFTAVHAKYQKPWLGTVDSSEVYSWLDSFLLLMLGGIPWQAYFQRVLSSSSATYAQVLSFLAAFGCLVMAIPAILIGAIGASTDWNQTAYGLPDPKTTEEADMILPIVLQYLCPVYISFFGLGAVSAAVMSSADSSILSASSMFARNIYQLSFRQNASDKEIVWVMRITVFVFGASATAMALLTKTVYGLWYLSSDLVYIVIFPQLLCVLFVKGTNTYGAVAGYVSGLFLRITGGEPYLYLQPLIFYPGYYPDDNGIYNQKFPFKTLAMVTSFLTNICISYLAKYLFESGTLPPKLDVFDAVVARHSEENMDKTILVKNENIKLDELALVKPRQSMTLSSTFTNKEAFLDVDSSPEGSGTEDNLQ

[8] = biological target: T6, 5-hydroxytryptamine receptor 1A (Homo sapiens, UniProt P08908); format: functional
T6 sequence (P08908 whole entry): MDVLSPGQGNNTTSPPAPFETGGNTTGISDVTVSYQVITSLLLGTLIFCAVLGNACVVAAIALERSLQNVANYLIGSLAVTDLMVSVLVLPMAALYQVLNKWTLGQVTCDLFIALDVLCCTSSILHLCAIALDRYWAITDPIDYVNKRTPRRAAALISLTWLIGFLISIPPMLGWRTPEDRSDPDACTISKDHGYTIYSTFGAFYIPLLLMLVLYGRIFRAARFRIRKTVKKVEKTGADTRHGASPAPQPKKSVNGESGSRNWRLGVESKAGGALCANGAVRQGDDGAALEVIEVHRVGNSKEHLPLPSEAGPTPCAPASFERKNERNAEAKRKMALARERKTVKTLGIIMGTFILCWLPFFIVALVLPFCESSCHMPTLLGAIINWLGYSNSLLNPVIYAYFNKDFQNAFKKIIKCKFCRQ

[9] = biological target: Voltage-gated inwardly rectifying potassium channel KCNH2 (Homo sapiens, UniProt Q12809); assay: concentration-dependent hERG rescue from blockers – cell-based, thallium flux, dose response (AID 2121); format: ADME
Ephrin type-A receptor 4 = Ephrin type-A receptor 4 (Mus musculus, UniProt Q03137); assay: EphA4 ligand-binding antagonists – biochemical, colorimetric, mouse EphA4, primary screen (AID 689); format: functional
[10] = biological target: 26S proteasome non-ATPase regulatory subunit 14 (Homo sapiens, UniProt O00487); assay: inhibition of proteasome subunit RPN11 – biochemical, fluorescence polarization, uHTS hits, confirmation (AID 602368); format: functional
[11] = biological target: 72 kDa type IV collagenase (Homo sapiens, UniProt P08253); assay: Dose Response validation of uHTS RPN11 inhibitor hits using a MMP-2 Fluorescence assay.; format: functional
ORF 73 = biological target: T7, ORF 73 (Human herpesvirus 8, UniProt O40947); assay: KSHV LANA DNA-binding disruption – biochemical, fluorescence polarization, cherry-picked samples, dose response (AID 504725); set-up: species or system Human gammaherpesvirus 8;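 note: fluorescence polarization of a labeled DNA duplex reporting LANA DNA binding; potency is for inhibitors that block LANA binding to the DNA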
T7 sequence (O40947 whole entry): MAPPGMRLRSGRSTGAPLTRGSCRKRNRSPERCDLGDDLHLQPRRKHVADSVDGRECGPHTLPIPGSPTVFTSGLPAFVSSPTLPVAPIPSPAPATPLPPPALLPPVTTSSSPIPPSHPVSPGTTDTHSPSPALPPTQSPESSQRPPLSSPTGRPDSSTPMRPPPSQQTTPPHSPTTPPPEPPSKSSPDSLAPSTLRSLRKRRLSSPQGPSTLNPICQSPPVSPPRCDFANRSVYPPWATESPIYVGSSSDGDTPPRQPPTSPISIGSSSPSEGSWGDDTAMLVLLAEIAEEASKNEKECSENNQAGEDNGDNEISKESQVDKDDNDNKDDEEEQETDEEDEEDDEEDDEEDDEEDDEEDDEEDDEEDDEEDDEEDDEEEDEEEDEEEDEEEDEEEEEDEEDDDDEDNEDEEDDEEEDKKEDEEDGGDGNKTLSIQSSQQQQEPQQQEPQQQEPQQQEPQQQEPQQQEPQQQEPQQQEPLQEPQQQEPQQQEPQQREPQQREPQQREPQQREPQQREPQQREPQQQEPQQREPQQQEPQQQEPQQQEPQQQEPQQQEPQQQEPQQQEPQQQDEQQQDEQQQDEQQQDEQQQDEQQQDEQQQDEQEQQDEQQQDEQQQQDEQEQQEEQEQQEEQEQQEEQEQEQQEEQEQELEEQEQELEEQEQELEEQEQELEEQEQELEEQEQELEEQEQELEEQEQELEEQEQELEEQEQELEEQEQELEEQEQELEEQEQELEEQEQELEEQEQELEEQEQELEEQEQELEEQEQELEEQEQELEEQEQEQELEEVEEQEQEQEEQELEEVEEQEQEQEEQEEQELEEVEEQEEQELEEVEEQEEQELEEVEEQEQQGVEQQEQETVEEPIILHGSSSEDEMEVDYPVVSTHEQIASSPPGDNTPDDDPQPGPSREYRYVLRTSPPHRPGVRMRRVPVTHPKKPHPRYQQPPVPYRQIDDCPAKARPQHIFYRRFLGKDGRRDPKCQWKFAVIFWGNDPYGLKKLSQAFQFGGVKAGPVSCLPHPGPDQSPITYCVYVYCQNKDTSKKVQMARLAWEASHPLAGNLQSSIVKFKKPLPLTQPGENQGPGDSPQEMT

[12] = biological target: DNA (cytosine-5)-methyltransferase 1 (Homo sapiens, UniProt P26358); assay: inhibition of DNA methylation by DNMT1 – biochemical, fluorescent molecular beacon, confirmation (AID 602386); format: functional
Prothrombin = Prothrombin (Bos taurus, UniProt P00735); assay: thrombin protease inhibitors – biochemical, fluorescence polarization, uHTS hits, dose response (AID 602369); format: functional
[13] = Trypanosoma cruzi growth suppression in host cells – NIH3T3 host cells, beta-gal luminescence, confirmation (AID 2044); format: functional, cell-based;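 note: intracellular parasites grown in NIH/3T3 mouse fibroblasts as host cells; luminescent beta-galactosidase reporter signal from transgenic T. cruzi replicating inside host cells; inhibitors lower the luminescence signal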
[14] = Luminescence Cell-Based Dose Retest to Confirm Inhibitors of Cancer Stem Cells. [Related pubchem assays (depositor defined):AID2717, AID2721]; format: functional; conditions: Homo sapiens
Kallikrein-7 = Kallikrein-7 (Homo sapiens, UniProt P49862); assay: Fluorescence Intensity-based biochemical primary high throughput dose response assay to identify activators of kallikrein-7 (K7) zymogen.
[15] = NIH3T3 cell viability loss – ATP luminescence, mouse fibroblasts, counter-screen, dose response (AID 2010); format: functional, cell-based;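 note: cells exposed to compound for about 90 hours before reading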
[16] = biological target: G-protein coupled receptor 183 (Homo sapiens, UniProt P32249); assay: SAR confirmation of small molecule antagonists of the EBI2 receptor via a luminescent beta-arrestin assa.; format: functional
[17] = IC50 of insulin release inhibition, rat insulinoma INS-1E line, 5 mM glucose, cell-based (AID 1117331); format: functional

Sequence of G-protein coupled receptor 183 (P32249 whole entry): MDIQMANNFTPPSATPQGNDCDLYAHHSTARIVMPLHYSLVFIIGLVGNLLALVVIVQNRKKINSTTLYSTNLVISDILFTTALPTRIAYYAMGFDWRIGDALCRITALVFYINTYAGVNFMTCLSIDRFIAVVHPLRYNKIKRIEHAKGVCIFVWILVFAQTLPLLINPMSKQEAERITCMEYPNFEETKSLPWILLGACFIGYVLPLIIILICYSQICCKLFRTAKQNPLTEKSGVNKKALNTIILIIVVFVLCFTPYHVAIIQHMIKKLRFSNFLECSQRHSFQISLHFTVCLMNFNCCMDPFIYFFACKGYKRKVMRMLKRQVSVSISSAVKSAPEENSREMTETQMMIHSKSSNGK
Sequence of Voltage-gated inwardly rectifying potassium channel KCNH2 (Q12809 whole entry): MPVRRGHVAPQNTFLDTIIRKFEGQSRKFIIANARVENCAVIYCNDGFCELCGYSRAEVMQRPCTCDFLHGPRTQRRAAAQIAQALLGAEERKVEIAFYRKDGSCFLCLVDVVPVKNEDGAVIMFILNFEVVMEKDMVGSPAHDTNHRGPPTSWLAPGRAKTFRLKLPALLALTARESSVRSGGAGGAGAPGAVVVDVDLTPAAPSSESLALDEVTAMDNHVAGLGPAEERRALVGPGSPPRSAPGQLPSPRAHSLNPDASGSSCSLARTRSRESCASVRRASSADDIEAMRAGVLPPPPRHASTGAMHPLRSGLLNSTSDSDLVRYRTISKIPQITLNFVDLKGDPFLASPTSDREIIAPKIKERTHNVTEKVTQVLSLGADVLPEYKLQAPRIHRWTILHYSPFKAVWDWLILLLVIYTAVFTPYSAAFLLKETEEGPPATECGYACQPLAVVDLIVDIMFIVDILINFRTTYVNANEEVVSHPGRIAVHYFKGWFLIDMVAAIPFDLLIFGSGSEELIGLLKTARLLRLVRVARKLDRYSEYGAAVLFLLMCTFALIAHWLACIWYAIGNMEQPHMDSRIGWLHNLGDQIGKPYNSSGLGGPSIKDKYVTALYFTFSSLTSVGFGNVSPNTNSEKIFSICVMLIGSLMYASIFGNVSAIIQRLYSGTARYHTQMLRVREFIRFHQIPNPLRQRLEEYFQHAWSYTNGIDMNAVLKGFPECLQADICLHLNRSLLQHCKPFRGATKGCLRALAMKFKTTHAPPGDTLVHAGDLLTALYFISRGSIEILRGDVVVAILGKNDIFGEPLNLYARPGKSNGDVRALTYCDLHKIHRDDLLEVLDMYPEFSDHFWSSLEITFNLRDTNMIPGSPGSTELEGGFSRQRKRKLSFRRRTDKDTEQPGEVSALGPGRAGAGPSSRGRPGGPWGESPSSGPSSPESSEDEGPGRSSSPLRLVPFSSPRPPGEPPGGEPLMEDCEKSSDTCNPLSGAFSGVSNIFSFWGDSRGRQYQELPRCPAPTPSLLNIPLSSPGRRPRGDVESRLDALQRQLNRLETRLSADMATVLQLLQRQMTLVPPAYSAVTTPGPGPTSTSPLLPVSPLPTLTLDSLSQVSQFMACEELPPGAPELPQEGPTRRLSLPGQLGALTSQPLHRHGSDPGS
Sequence of Kallikrein-7 (P49862 whole entry): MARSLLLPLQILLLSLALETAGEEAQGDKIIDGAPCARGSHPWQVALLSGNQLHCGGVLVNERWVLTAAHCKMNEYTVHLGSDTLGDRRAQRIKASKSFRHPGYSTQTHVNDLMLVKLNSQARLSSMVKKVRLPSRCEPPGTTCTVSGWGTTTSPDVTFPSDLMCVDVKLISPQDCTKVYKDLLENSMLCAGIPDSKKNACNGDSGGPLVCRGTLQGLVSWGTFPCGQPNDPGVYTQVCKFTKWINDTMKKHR
Sequence of Ephrin type-A receptor 4 (Q03137 whole entry): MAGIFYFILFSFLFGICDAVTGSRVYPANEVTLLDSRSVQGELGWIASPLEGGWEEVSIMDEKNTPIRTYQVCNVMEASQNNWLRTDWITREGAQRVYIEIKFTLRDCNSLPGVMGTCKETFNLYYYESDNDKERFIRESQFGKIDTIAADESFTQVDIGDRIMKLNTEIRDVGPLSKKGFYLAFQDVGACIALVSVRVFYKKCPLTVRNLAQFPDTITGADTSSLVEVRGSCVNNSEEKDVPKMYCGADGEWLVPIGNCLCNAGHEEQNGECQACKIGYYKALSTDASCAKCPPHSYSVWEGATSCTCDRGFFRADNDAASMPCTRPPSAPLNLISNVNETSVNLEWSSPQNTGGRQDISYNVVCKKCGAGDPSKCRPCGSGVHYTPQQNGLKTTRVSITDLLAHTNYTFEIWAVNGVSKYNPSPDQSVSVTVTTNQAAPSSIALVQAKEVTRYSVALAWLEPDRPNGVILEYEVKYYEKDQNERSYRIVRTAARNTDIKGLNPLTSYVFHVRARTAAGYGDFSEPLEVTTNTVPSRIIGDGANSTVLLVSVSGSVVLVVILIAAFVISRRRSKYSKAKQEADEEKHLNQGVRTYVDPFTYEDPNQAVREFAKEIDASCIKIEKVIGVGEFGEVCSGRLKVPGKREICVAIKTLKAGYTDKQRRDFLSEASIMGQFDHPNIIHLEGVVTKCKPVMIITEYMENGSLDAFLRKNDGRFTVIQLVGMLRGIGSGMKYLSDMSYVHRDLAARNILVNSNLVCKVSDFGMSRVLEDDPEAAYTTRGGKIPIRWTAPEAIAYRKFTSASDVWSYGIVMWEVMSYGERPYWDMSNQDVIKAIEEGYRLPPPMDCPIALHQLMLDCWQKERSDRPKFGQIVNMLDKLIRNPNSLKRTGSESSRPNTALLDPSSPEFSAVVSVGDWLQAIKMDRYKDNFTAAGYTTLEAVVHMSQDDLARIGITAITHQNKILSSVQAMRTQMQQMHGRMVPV
Sequence of 26S proteasome non-ATPase regulatory subunit 14 (O00487 whole entry): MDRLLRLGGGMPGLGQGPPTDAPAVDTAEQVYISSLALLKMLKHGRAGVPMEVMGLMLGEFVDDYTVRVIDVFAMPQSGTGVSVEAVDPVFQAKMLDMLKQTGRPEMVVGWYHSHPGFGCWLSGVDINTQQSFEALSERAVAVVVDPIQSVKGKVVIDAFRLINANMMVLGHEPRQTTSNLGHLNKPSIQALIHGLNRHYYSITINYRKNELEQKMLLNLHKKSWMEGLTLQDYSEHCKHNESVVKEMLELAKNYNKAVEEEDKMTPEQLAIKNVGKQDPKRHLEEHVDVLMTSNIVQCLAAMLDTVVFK
Sequence of DNA dC->dU-editing enzyme APOBEC-3A (P31941 whole entry): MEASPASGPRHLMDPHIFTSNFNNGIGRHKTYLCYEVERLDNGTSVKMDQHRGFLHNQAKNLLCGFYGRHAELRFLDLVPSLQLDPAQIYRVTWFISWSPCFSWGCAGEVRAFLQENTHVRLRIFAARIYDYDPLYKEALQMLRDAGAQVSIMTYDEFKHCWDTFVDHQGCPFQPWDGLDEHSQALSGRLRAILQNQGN
Sequence of DNA (cytosine-5)-methyltransferase 1 (P26358 whole entry): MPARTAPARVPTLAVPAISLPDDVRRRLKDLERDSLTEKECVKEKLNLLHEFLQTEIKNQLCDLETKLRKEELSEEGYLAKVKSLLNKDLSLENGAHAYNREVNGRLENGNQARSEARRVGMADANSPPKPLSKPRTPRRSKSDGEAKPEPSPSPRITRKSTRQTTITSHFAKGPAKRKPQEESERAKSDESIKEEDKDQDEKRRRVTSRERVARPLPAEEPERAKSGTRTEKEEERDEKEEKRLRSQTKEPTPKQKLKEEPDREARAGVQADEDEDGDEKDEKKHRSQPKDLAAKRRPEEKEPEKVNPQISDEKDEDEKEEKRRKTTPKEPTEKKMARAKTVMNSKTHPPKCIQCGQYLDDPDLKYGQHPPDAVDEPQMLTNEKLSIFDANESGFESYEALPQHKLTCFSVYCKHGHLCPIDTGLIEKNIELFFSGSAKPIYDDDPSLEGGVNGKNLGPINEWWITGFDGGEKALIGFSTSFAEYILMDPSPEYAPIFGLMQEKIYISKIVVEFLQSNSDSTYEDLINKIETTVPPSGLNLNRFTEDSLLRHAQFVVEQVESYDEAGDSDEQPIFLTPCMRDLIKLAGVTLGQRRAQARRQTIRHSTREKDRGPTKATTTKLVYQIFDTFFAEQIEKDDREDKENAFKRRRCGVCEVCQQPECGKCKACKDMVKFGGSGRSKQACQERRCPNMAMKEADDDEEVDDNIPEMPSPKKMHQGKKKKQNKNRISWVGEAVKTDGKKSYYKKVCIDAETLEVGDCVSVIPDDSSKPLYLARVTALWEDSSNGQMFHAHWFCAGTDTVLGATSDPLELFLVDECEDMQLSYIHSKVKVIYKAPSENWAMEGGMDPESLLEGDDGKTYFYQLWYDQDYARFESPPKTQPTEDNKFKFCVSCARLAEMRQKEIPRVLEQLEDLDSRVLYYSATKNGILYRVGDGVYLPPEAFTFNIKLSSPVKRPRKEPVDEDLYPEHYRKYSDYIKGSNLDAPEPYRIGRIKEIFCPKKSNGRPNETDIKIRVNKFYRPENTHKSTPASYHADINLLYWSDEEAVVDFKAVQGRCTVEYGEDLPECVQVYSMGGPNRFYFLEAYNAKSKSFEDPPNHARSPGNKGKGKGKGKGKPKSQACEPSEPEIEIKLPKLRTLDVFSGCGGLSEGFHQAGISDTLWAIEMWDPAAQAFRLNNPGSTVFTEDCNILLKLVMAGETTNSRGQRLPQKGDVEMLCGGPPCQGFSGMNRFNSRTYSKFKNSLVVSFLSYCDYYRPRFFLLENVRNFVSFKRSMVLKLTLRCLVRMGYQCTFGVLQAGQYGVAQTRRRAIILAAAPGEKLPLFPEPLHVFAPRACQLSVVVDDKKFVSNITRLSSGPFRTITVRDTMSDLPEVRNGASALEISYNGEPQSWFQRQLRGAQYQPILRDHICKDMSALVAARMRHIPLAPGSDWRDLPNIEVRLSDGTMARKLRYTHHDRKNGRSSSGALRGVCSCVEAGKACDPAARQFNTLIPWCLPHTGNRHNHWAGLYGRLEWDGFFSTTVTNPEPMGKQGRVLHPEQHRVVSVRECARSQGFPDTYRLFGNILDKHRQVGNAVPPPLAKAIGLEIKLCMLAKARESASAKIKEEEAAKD

## CSc1nnc(SCc2nc3sc(C(=O)O)c(C)c3c(=O)[nH]2)s1
[1]
  EC50: 25.4 µM (active)
[2]
  IC50: 76.2 µM (active)
[3]
  IC50: 14 µM (active)
[4]
  IC50: 24.6 µM (active)
[5]
  EC50: 30.6 µM (active)

## COc1ccc(-n2ncc3c(N4CCCc5ccccc54)ncnc32)cc1
14-3-3 protein gamma
  IC50: > 50 µM (not active)

## CCOc1ccc(N2C(=O)NC(=O)/C(=C\NCCN3CCNCC3)C2=O)cc1
14-3-3 protein gamma
  IC50: > 50 µM (not active)

## Cc1cccc(N2CCN(C(=O)Cc3c(C(=O)O)[nH]c4ccc(Cl)cc34)CC2)c1C
[6]
  CC50: 20.4 µM (active)
[7]
  IC50: 10.8 µM (active)
[8]
  EC50: > 50 µM (not active)

## O=C1C2CC=CCC2C(=O)N1c1ccc(Cc2ccncc2)cc1 (stereo not given)
[9]
  EC50: 0.86 µM (active)

## Cc1nn(-c2ccccc2)c2c1C(c1cccnc1)N1C=C(S(=O)(=O)N3CCCCC3)C=CC1=N2 (stereo not given)
Ephrin type-A receptor 4
  IC50: > 100 µM (not active)

## O=C(Nc1cccc(-c2cn3ccsc3n2)c1)c1ccccc1
[8]
  EC50: > 50 µM (not active)

## CCOC(=O)c1sc(NN=C(C(=O)OC)C(=O)OC)c(C(=O)OCC)c1C
[9]
  EC50: 0.21 µM (active)

## COC(=O)c1ccccc1NC(=O)CCS(=O)(=O)c1ccc(Br)cc1
[10]
  IC50: 14 µM (active)
[2]
  IC50: 28.6 µM (active)
[11]
  IC50: 22.5 µM (active)
ORF 73
  AC50: 31.5 µM (active)
[12]
  IC50: 3.69 µM (active)
Prothrombin
  IC50: > 100 µM (inactive)

## Cc1cc(Nc2cccc(F)c2)nc(-c2ccccc2O)n1
[13]
  EC50: 4.15 µM (active)
[14]
  AC50: 3.68 µM (active)
Kallikrein-7
  EC50: > 69.5 µM (inactive)
[15]
  EC50: > 60 µM (not active)

## Cc1ccc(NC(=O)C2=CC(c3cccs3)=NS(=O)(=O)N2C)cc1
Kallikrein-7
  EC50: 33.9 µM (inactive)

## C/C(=C\C(=O)c1ccccc1)NNc1nc2ccccc2s1
Ephrin type-A receptor 4
  IC50: > 100 µM (not active)

## CC(C)(C)c1ccc(S(=O)(=O)N2CCN(C(=O)/C=C/c3ccc(F)cc3)CC2)cc1
[16]
  IC50: 0.0124 µM (active)

## O=C(/C=C/c1ccc(Br)cc1)N1CCN(C(=O)c2ccc(Cl)cc2)CC1
[16]
  IC50: 0.000409 µM (active)

## O=C(/C=C/c1ccc(F)cc1)N1CCN(S(=O)(=O)c2cc(Cl)ccc2Cl)CC1
[16]
  IC50: 0.0219 µM (active)

## CC(CCc1ccccc1)NC(C)C(O)c1ccc(O)cc1 (stereo not given) [NYLIDRIN]
[17]
  IC50: 14.5 µM (inactive)

From ChEMBL document CHEMBL1201862, “PubChem BioAssay data set” (2004)
